Measured values as given in patent US9056067B2, “Pharmaceutical composition for enhancing immunity, and extract of Poria” (Sinphar Pharmaceutical Co., Ltd., priority 2003, dated 2015).

What was measured:
Format in all cases: in vivo, mice
IL-10 = IL-10 secretion by Con A-stimulated spleen cells (ELISA) after oral administration
Procedure: (§1) For the drug treatment, the animals were divided into four groups and oral administration with 1 ml of PCM, ranging from 10, 40 to 80 mg/kg/day, for four days. […] The control group was the mice feeding with an equal volume of saline (0.85% of NaCl). Mice were sacrificed at day five, and both the serum and spleen cells were collected. The sera were subsequently used to measure the concentration of IgG, IgM and IgA. The spleen cells were plated onto a 100 mm diameter culture plate and incubated at 37° C. for three hours. The non-adherent cells containing T-lymphocytes, B-lymphocytes and NK cells were collected and properly diluted as described in each assay.
(§2) The mouse to be sacrificed was cervical dislocated and sterilized with 70% ethanol. The cardiac punctuation was performed first to withdraw the blood. After the haemagglutination, the blood sample was subjected to centrifugation and the serum was collect. For isolation of spleen cells, the peritoneum was opened to remove the spleen. The fresh spleen was transferred to a culture plate containing 10 ml of RPMI-1640 culture medium. The spleen was then ground over a fine mesh to release the spleen cells. The spleen cells suspending in the medium were then removed and transferred to a 50-ml conical centrifuge tube. The tube was subjected to centrifugation at 1300 rpm for 10 min. The supernatant was discarded and the pellet was re-suspended in 1 ml of cold RBC lysing buffer containing EDTA-NH4Cl. The cells were incubated at room temperature for 10 min, followed by washing the cells three times with culture medium by centrifugation. The spleen cells were plated onto a 100 mm diameter culture plate and incubated at 37° C. for three hours. The non-adherent cells containing T-lymphocytes, B-lymphocytes and NK cells were collected and properly diluted as described in each assay.
For the quantitative analysis of IFN-γ and IL-10, the spleen cells (1×10^6 cells/ml) were cultured in a medium containing RPMI 1640 supplemented with 10% fetal bovine serum (FBS), 2 mM L-glutamine, antibiotics and 1 μg/ml concanavalin A (Con A) for 3 days. Con A is one of the polyclonal activators for T lymphocyte. Culture spleen cell supernatants were collected. The IFNγ and IL-10 concentrations were measured using a cytokine ELISA set (Cyto Set ELISA kit) purchased from R&D Systems (MN, USA).
Cyto Set ELISA was performed as follows: A 96-well microtiter plate (Nunc-Immuno Plate, MaxiSorp, Nunc, Denmark) was precoated with capture antibodies at 4° C. overnight. The capture antibody was a rat monoclonal antibody to mouse IL-10. The samples to be tested and standard IL-10 ranged from 500 pg/ml to 15.6 pg/ml were added (100 μl/well). The plate was then incubated at 37° C. for 20 min. At the end of incubation, the plate was washed five times, followed by adding the biotinylated goat anti IL-10 polyclonal antibody. The color was developed by incubating the plate with a HRP-conjugated streptoavidin (Zymed, CA, USA), followed by a substrate solution containing hydrogen peroxide and tetramethylbenzidine (TMB). The reaction continued for 30 min at room temperature, and was stopped by adding 100 μl of 2N of sulfuric acid. The absorbence at 450 nm in each well was read using an ELISA reader (EL311, BioTek, Winooski, Vt.), and the data was analyzed using log-logit model.
TH1-type cytokines, such as interleukin-2 (IL-2), interferon-γ (IFN-γ) induces the cellular immune response. Whereas, TH2-type cytokines, such as interleukin-4 (IL-4), interleukin-5 (IL-5), interleukin-6 (IL-6), stimulates the B lymphocyte-mediated humoral immune response. […] Spleen cells isolated from the mice treated with PCM and its purified components, such as PCM-K1, -K2, -K3 and K4, were cultured for five days in the presence of ConA. The amount of interferon-γ (IFNγ; TH1-type cytokine) and interleukin-10 (IL-10; TH2-type cytokine) secreted by the spleen T lymphocytes was measured (Table 7.1 & Table 7.2). […]

IgG = test: Serum level of IgG (ELISA)
Procedure: as §1, with “For the drug treatment, the animals were divided into four groups and oral administration with 1 ml of PCM, ranging from 10, 40 to 80 mg/kg/day, for four days.” left out
as §2
(§3) An ELISA was performed in our study to measure the immunoglobulin concentration. Briefly, the spleen cells (5×10^5 cells/ml) were cultured in a medium containing RPMI 1640 supplemented with 10% fetal bovine serum (FBS), 2 mM L-glutamine, antibiotics and 5 μg/ml lipopolysaccharide (LPS; 1 μg/10^5 cells) for 5 days. LPS is a polyclonal activator of B lymphocyte. Culture spleen cell supernatants were collected at day 3, 4 and 5. IgA, IgG and IgM concentrations were measured using a sandwich ELISA technique.
A 96-well microtiter plate (Nunc-Immuno Plate, MaxiSorp, Nunc, Denmark) was precoated with 100 ng/well of capture antibodies at 4° C. overnight. The capture antibody was a rabbit anti-mouse IgG+IgA+IgM antibody (Zymed Laboratory, CA). The plate was washed with PBS-0.05% Tween 20 solution and blocked with PBS-1% gelatin. After the blocking, the properly diluted samples (1/10^5 diluted) and standard IgG ranged from 0.25 μg/ml to 0.039 μg/ml were added (100 μl/well). The plate was then incubated at 37° C. for 2 h. At the end of incubation, HRP-conjugated goat anti-mouse IgG (1:2,000 diluted; anti-whole IgG molecule; Zymed Laboratory, CA) was added (100 μl/well). After 1 h of incubation at 37° C., the color was developed using a substrate solution containing 0.1 M citrate buffer, pH 4.5, 0.03% H2O2 and 0.1% of o-phenylenediamine. The absorbence at 490 nm in each well was read using an ELISA reader (EL311, BioTek, VT), and the data was analyzed using log-logit model.

IgA = IgA secretion by spleen cells in vitro (LPS, ELISA) after oral administration
Procedure: as §1, with “For the drug treatment, the animals were divided into four groups and oral administration with 1 ml of PCM, ranging from 10, 40 to 80 mg/kg/day, for four days.” left out
as §2, §3
The procedure for IgA assay was similar to that for IgG assay, except that the samples were 1/10^4 diluted and standard IgA ranged from 1 μg/ml to 0.0156 μg/ml were added (100 μl/well). The secondary antibody for the assay was HRP-conjugated goat anti-mouse IgA (1:1000 diluted; Zymed Laboratory, CA).

[1] = oral 10 mg/kg/day for four days
[2] = oral 20 mg/kg/day for four days

Row | Structure (SMILES) | IL-10 secretion by spleen cell (IL-10; oral 5 mg/kg/day for four days) | IL-10 secretion by spleen cell (IL-10; [1]) | IL-10 secretion by spleen cell (IL-10; [2]) | Serum immunoglobulin concentration IgG (IgG; oral 5 mg/kg/day for four days) | Serum immunoglobulin concentration IgG (IgG; [1]) | Serum immunoglobulin concentration IgG (IgG; [2]) | Effect on IgA secretion by spleen cells (in words) (IgA; oral) | IgA secretion by spleen cell, incubation day 3 (IgA; oral 5 mg/kg/day for four days) | IgA secretion by spleen cell, incubation day 4 (IgA; oral 5 mg/kg/day for four days) | IgA secretion by spleen cell, incubation day 5 (IgA; oral 5 mg/kg/day for four days) | IgA secretion by spleen cell, incubation day 3 (IgA; [1]) | IgA secretion by spleen cell, incubation day 4 (IgA; [1]) | IgA secretion by spleen cell, incubation day 5 (IgA; [1]) | IgA secretion by spleen cell, incubation day 3 (IgA; [2]) | IgA secretion by spleen cell, incubation day 4 (IgA; [2]) | IgA secretion by spleen cell, incubation day 5 (IgA; [2]) | Dose with increase in IgA secretion by spleen cells (IgA; oral, PCM-K1 at day 3 and day 5)
1 | C=C(CC[C@@H](C(=O)O)[C@H]1[C@H](O)C[C@@]2(C)C3=CC[C@H]4C(C)(C)C(=O)CC[C@]4(C)C3=CC[C@]12C)C(C)C [K3] | 262.09 ± 108.41 pg/mL | 86.48 ± 33.26 pg/mL | 98.74 ± 27.05 pg/mL | 1.32 ± 0.09 mg/mL | 1.28 ± 0.13 mg/mL | 1.14 ± 0.11 mg/mL | significantly suppressed | 32.83 ± 7.00 | 27.37 ± 5.83 | 21.96 ± 4.17 | 26.57 ± 3.68 | 28.97 ± 5.95 | 18.87 ± 2.66 | 43.08 ± 4.05 | 43.45 ± 5.92 | 30.50 ± 3.60 | –
2 | C=C(CCC(C(=O)O)C1C(O)CC2(C)C3=CCC4C(C)(CCC(O)C4(C)C)C3=CCC12C)C(C)C (centres unmarked) [K4] | 128.91 ± 45.46 pg/mL | 197.39 ± 68.73 pg/mL | 155.91 ± 26.16 pg/mL | 3.75 ± 0.18 mg/mL | 4.33 ± 0.29 mg/mL | 4.18 ± 0.25 mg/mL | – | 55.56 ± 4.71 | 79.51 ± 3.74 | 106.69 ± 7.29 | 66.43 ± 5.26 | 95.39 ± 10.08 | 121.97 ± 12.69 | 119.59 ± 15.08 | 101.53 ± 25.08 | 133.16 ± 20.09 | ≥ 5 mg/kg/day
